Patent publication US20220227759A1, “AMORPHOUS PI3K INHIBITOR AND PHARMACEUTICAL COMPOSITION COMPRISING SAME” (BORYUNG PHARMACEUTICAL CO., LTD, priority 2019, published 2022)

Assay: Pharmacokinetic (PK) test
Type: in vivo
Details: beagle dog, 100 mg, PO, capsule
Procedure: A pharmacokinetic (PK) experiment was performed on the amorphous compound of Example 1.
The powder of the amorphous compound of Example 1 was filled into a capsule in an amount of 100 mg, and the capsule was orally administered to a beagle dog at 100 mg once a day, and then the biokinetics of the drug was confirmed.
Specifically, 100 mg of the amorphous compound was orally administered to the beagle dog, and blood was collected at a predetermined time, so as to measure a concentration of (S)-4-((1-(4,8-dichloro-1-oxo-2-phenyl-1,2-dihydroisoquinoline-3-yl)ethyl)amino)pyrido[2,3-d]pyrimidine-5(8H)-one. With respect to pharmacokinetic parameters, the BA Calc 2007 program was used to calculate an area under the plasma concentration-time curve from dosing time to final plasma concentration quantification time t (AUCt), an area under the plasma concentration-time curve from dosing time to infinite time (AUCi), peak plasma concentration (Cmax), time for peak plasma concentration (Tmax), and terminal elimination half-life (t1/2). As a result, a significance between substances was confirmed by Student t-test (SPSS) at a 95% confidence interval, and the results thereof are shown in table 4 below.

blood concentration: high blood concentration
SMILES: C[C@H](Nc1ncnc2[nH]ccc(=O)c12)c1c(Cl)c2cccc(Cl)c2c(=O)n1-c1ccccc1 [Example 1, (S)-4-((1-(4,8-dichloro-1-oxo-2-phenyl-1,2-dihydroisoquinoline-3-yl)ethyl)amino)pyrido[2,3-d]pyrimidin-5(8H)-one]
